In ChEMBL document CHEMBL1909046, “DrugMatrix in vitro pharmacology data”:

Key:
[1] = molecular target: Sigma non-opioid intracellular receptor 1 (Homo sapiens, UniProt Q99720); assay: DRUGMATRIX: Sigma1 radioligand binding (ligand: [3H] Haloperidol); format: cell membranes, Jurkat, Membrane; details: jurkat; Not Active = under 50% inhibition at 10 µM
[2] = DRUGMATRIX: GABAA, Chloride Channel, TBOB radioligand binding (ligand: [3H] TBOB); format: cell membranes, Rattus norvegicus, Wistar, Cerebral cortex, Membrane; details: Not Active = under 50% inhibition at 10 µM
[3] = DRUGMATRIX: Imidazoline I2, Central radioligand binding (ligand: [3H] Idazoxan); format: cell membranes, Rattus norvegicus, Wistar, Cerebral cortex, Membrane; details: Not Active = under 50% inhibition at 10 µM
[4] = molecular target: Protein phosphatase 3 catalytic subunit alpha (Homo sapiens, UniProt Q08209); parameters: species or system Escherichia coli;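 also: inhibition of calcineurin (PP2B) enzyme activity, measured with DiFMUP as the substrate; in other assays of this panel Not Active means under 50% inhibition at 10 µM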
[5] = DRUGMATRIX: Purinergic P2X radioligand binding (ligand: [3H] alpha, beta-Methylene-ATP); format: cell membranes, Oryctolagus cuniculus, New Zealand albino, Urinary bladder, Membrane; details: Not Active = under 50% inhibition at 10 µM
[6] = molecular target: Acetylcholinesterase (Homo sapiens, UniProt P22303); assay: DRUGMATRIX: Acetylcholinesterase enzyme inhibition (substrate: acetylthiocholine); format: cell-based, HEK293; details: hek293; Not Active = under 50% inhibition at 10 µM
Acetylcholinesterase, sequence (P22303 whole entry): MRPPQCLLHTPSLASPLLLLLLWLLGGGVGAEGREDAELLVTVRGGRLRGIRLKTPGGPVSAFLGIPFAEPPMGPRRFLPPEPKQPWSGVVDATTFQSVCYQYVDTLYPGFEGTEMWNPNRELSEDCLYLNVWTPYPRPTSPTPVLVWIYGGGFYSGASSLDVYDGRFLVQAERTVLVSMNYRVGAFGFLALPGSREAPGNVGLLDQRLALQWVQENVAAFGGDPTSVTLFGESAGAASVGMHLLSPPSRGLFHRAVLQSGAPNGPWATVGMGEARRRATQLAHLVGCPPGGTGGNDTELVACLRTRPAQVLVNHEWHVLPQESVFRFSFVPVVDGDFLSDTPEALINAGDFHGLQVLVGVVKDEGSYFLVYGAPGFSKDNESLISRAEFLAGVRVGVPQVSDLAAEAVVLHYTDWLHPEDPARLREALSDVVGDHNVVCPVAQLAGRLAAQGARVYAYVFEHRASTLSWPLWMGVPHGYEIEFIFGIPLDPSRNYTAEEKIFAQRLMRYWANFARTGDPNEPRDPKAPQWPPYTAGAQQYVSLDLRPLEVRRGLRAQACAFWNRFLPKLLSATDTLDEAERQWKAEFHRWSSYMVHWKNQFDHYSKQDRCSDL

Sigma non-opioid intracellular receptor 1, sequence (Q99720 whole entry): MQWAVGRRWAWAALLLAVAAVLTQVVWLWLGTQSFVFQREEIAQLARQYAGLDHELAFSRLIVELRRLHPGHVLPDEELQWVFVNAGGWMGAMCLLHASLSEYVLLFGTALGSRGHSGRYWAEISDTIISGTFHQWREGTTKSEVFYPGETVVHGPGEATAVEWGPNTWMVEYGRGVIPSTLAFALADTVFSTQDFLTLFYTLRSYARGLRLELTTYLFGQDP

C1CCN2C[C@@H]3C[C@@H](CN4CCCC[C@@H]34)[C@H]2C1 [SPARTEINE]
Not Active: IC50 [1] | IC50 [2] | Ki [2] | IC50 [3] | Ki [3] | IC50 [4] | IC50 [5] | Ki [5] | IC50 [6]

CO[C@@H]1[C@@H](OC)[C@H](C)[C@@](O)(CC(=O)O)O[C@H]1[C@H](C)[C@H]1O[C@@]2(CC[C@@](C)([C@H]3CC[C@@](C)([C@@H]4O[C@@H]([C@H]5O[C@](C)(O)[C@H](C)C[C@@H]5C)C[C@@H]4O[C@@H]4C[C@H](OC)[C@@H](OC)[C@H](C)O4)O3)O2)C[C@H](O)[C@H]1C.N [MADURAMICIN]
Not Active: IC50 [1] | IC50 [2] | Ki [2] | IC50 [3] | Ki [3] | IC50 [4] | IC50 [5] | Ki [5] | IC50 [6]

CC(N)C12CC3CC(CC(C3)C1)C2 (stereo unspecified) [RIMANTADINE]
Not Active: IC50 [1] | IC50 [2] | Ki [2] | IC50 [3] | Ki [3] | IC50 [4] | IC50 [5] | Ki [5] | IC50 [6]

CCN(CC)C(=S)SSC(=S)N(CC)CC
Not Active: IC50 [1] | IC50 [2] | Ki [2] | IC50 [3] | Ki [3] | IC50 [4] | IC50 [5] | Ki [5] | IC50 [6]
